The record followed here is PubChem BioAssay AID330 (DTP/NCI, 2004).

Structures are written as SMILES. Several values for one entry are separate records, joined by “and”; a condition that tells them apart may be missing. Identical values can stand only once. Inconclusive results and toxic doses are left out.

The test system of this assay is P388 leukemia ip, CD2F1 mice, survival T/C. The assay can be described thus: NCI In Vivo Anticancer Drug Screen. Data for tumor model P388 Leukemia (intraperitoneal) in CD2F1 (CDF1) mice. The settings on record: endpoint: median survival time, higher = longer survival. A digest of the protocol:
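Mice carrying the transplanted tumor received test compound or vehicle. Survival was recorded in each group, and the value is the treated-group measurement divided by that of the vehicle-treated control group.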

[1] abbreviates: dose: 50.0 mg/kg/injection, schedule: Q01DX009 (ip), vehicle: Klucel (hydroxypropylcellulose) (HPC).
[2] abbreviates: dose: 100.0 mg/kg/injection, schedule: Q01DX009 (ip), vehicle: Klucel (hydroxypropylcellulose) (HPC).
[3] abbreviates: dose: 200.0 mg/kg/injection, schedule: Q01DX009 (ip), vehicle: Klucel (hydroxypropylcellulose) (HPC).
The mark [4] stands for this setting: dose: 25.0 mg/kg/injection, schedule: Q04DX003 (ip), vehicle: saline with Tween-80.
The mark [5] stands for this setting: dose: 50.0 mg/kg/injection, schedule: Q04DX003 (ip), vehicle: saline with Tween-80.
The mark [6] stands for this setting: dose: 100.0 mg/kg/injection, schedule: Q04DX003 (ip), vehicle: saline with Tween-80.
Setting [7] is: dose: 50.0 mg/kg/injection, schedule: Q01DX005 (ip), vehicle: saline with Tween-80.
The mark [8] stands for this setting: dose: 100.0 mg/kg/injection, schedule: Q01DX005 (ip), vehicle: saline with Tween-80.
The mark [9] stands for this setting: dose: 200.0 mg/kg/injection, schedule: Q01DX005 (ip), vehicle: saline with Tween-80.

On to `COCNC(=O)N=C1N(COC)COCN1COC`, for which the T/C runs as follows: (dose: 100.0 mg/kg/injection, schedule: Q01DX001 (ip), vehicle: saline with Tween-80) 109 % of control; (dose: 200.0 mg/kg/injection, schedule: Q01DX001 (ip), vehicle: saline with Tween-80) 106 % of control; (dose: 400.0 mg/kg/injection, schedule: Q01DX001 (ip), vehicle: saline with Tween-80) 100 % of control.

As for `CC1C(c2ccccc2)OCCN1C(=S)Nc1ccc(S(=O)(=O)N2CCCCC2)cc1` (centres undefined), the T/C is 86 % of control and 95 % of control under setting [1]; 105 % of control under setting [2]; 91 % of control and 95 % of control under setting [3].

Consider `COC(=O)c1cc(/C=C/c2ccccc2)[nH]c(=O)c1C#N`, for which the T/C is 106 % of control (dose: 60.0 mg/kg/injection, schedule: Q01DX005 (ip), vehicle: saline with Tween-80); 105 % of control (dose: 120.0 mg/kg/injection, schedule: Q01DX005 (ip), vehicle: saline with Tween-80); 98 % of control (dose: 240.0 mg/kg/injection, schedule: Q01DX005 (ip), vehicle: saline with Tween-80).

Turning to `C[n+]1ccc(C(c2ccccc2)c2ccccc2)cc1`, the T/C runs as follows: (dose: 6.25 mg/kg/injection, schedule: Q01DX009 (ip), vehicle: saline) 104 % of control; (dose: 12.5 mg/kg/injection, schedule: Q01DX009 (ip), vehicle: saline) 112 % of control; (dose: 25.0 mg/kg/injection, schedule: Q01DX009 (ip), vehicle: saline) 100 % of control.

Take `CCCCCCCCCCCCOP(=O)(N1CC1(C)C)N1CC1(C)C` (centres undefined): the T/C is 108 % of control and 113 % of control (dose: 2.0 mg/kg/injection, schedule: Q01DX009 (ip), vehicle: saline with Tween-80); 103 % of control and 108 % of control (dose: 4.0 mg/kg/injection, schedule: Q01DX009 (ip), vehicle: saline with Tween-80); 114 % of control and 117 % of control (dose: 8.0 mg/kg/injection, schedule: Q01DX009 (ip), vehicle: saline with Tween-80); 102 % of control and 117 % of control (dose: 16.0 mg/kg/injection, schedule: Q01DX009 (ip), vehicle: saline with Tween-80).

As for `O=C(O)c1cc2ccccc2o1`, the T/C runs as follows: under setting [4], 100 % of control; under setting [5], 104 % of control; (dose: 100.0 mg/kg/injection, schedule: Q01DX009 (ip), vehicle: saline with Tween-80) 95 % of control; under setting [6], 104 % of control; (dose: 200.0 mg/kg/injection, schedule: Q01DX009 (ip), vehicle: saline with Tween-80) 95 % of control.

Turning to `O=C(CCCCC(=O)Nc1cc(C2=NCCN2)cc(C2N=CCN2)c1)Nc1cc(C2=NCCN2)cc(C2=NCCN2)c1` (centres undefined), the T/C (dose: 6.25 mg/kg/injection, schedule: Q01DX005 (ip), vehicle: saline) is 104 % of control.

With `CC(=O)C[n+]1cccc(S)c1-c1ccccc1`, the T/C is 97 % of control under setting [7], 105 % of control under setting [8] and 97 % of control under setting [9].

As to `C[C@]12CC[C@H]3[C@@H](CCC4=CC(=O)CC[C@@]43C)[C@@H]1CC[C@@H]2C(=O)C=O`, the T/C under setting [1] was 109 % of control, the T/C under setting [2] was 106 % of control and the T/C under setting [3] was 103 % of control.

With `CC1(C)C2CCC1(C)C(N1C(=O)N=NC1=O)C2` (centres undefined), the T/C (dose: 12.5 mg/kg/injection, schedule: Q01DX005 (ip), vehicle: saline with Tween-80) was 100 % of control; the T/C (dose: 25.0 mg/kg/injection, schedule: Q01DX005 (ip), vehicle: saline with Tween-80) was 103 % of control; the T/C under setting [7] is 103 % of control and 91 % of control; the T/C under setting [9] is 104 % of control.

As to `COc1cc(CNNc2ccc(NC(C)=O)cc2N)ccc1OC(C)=O`, the T/C under setting [4] is 94 % of control, the T/C under setting [5] is 91 % of control and the T/C under setting [6] was 86 % of control.

For the molecule `C1CNCOC1`, the T/C was 120 % of control (dose: 50.0 mg/kg/injection, schedule: Q04DX003 (ip), vehicle: saline); 117 % of control (dose: 100.0 mg/kg/injection, schedule: Q04DX003 (ip), vehicle: saline); 123 % of control (dose: 200.0 mg/kg/injection, schedule: Q04DX003 (ip), vehicle: saline).

For `Cc1cc(N=Cc2ccc(C=Nc3ccc(Br)c(C)c3)cc2)ccc1Br`, the T/C is 101 % of control under setting [1], 93 % of control under setting [2] and 92 % of control under setting [3].

Consider `Cc1ccc(S(=O)(=O)Sc2nnnn2C)cc1`, for which the T/C by setting is: under setting [1], 106 % of control; under setting [2], 97 % of control.

With `Cc1cccn2cc(CC(=O)O)nc12`, the T/C reads like this: (dose: 100.0 mg/kg/injection, schedule: Q01DX001 (ip), vehicle: saline) 105 % of control; (dose: 200.0 mg/kg/injection, schedule: Q01DX001 (ip), vehicle: saline) 104 % of control; (dose: 400.0 mg/kg/injection, schedule: Q01DX001 (ip), vehicle: saline) 109 % of control.

As to `CSc1nc2ccc(NC(=O)/C=N/O)cc2s1`, the T/C under setting [1] is 91 % of control; the T/C under setting [2] was 92 % of control; the T/C under setting [3] is 87 % of control and 90 % of control.

With `COC(C)C(O)(C(=O)OCC1=CC[N+]2([O-])CCC(O)C12)C(C)(C)O` (centres undefined), the T/C is, setting by setting: (dose: 100.0 mg/kg/injection, schedule: Q01DX005 (ip), vehicle: other) 111 % of control; under setting [8], 104 % of control; (dose: 200.0 mg/kg/injection, schedule: Q01DX005 (ip), vehicle: other) 102 % of control; under setting [9], 112 % of control; (dose: 400.0 mg/kg/injection, schedule: Q01DX005 (ip), vehicle: saline with Tween-80) 107 % of control; (dose: 800.0 mg/kg/injection, schedule: Q01DX005 (ip), vehicle: other) 111 % of control. Besides, the T/C is, setting by setting: (dose: 800.0 mg/kg/injection, schedule: Q01DX005 (ip), vehicle: saline with Tween-80) 117 % of control; (dose: 1600.0 mg/kg/injection, schedule: Q01DX005 (ip), vehicle: saline with Tween-80) 112 % of control.

Consider `COc1c2c(cc3c1OCO3)CCN(C)C2`, for which the T/C was 106 % of control (dose: 10.0 mg/kg/injection, schedule: Q01DX009 (ip), vehicle: saline); 101 % of control (dose: 20.0 mg/kg/injection, schedule: Q01DX009 (ip), vehicle: saline); 98 % of control (dose: 40.0 mg/kg/injection, schedule: Q01DX009 (ip), vehicle: saline); 104 % of control (dose: 80.0 mg/kg/injection, schedule: Q01DX009 (ip), vehicle: saline).

Turning to `COC1OCC(N=[N+]=[N-])C(O)C1O` (centres undefined), the T/C is, setting by setting: (dose: 25.0 mg/kg/injection, schedule: Q01DX005 (ip), vehicle: saline) 98 % of control; (dose: 50.0 mg/kg/injection, schedule: Q01DX005 (ip), vehicle: saline) 102 % of control; (dose: 100.0 mg/kg/injection, schedule: Q01DX005 (ip), vehicle: saline) 100 % of control; (dose: 200.0 mg/kg/injection, schedule: Q01DX005 (ip), vehicle: saline) 102 % of control.

Consider `CCC1=C[C@H]2CN(CCc3c([nH]c4cc(Br)ccc34)[C@@](C(=O)OC)(c3cc4c(cc3OC)N(C)[C@H]3[C@@](O)(C(=O)OC)[C@H](OC(C)=O)[C@]5(CC)C=CCN6CC[C@]43[C@@H]65)C2)C1`, for which the T/C runs as follows: (dose: 1.0 mg/kg/injection, schedule: Q01DX001 (ip), vehicle: water) 113 % of control; (dose: 2.0 mg/kg/injection, schedule: Q01DX001 (ip), vehicle: water) 115 % of control; (dose: 3.9 mg/kg/injection, schedule: Q01DX001 (ip), vehicle: water) 118 % of control; (dose: 4.0 mg/kg/injection, schedule: Q01DX001 (ip), vehicle: water) 122 % of control; (dose: 6.5 mg/kg/injection, schedule: Q01DX001 (ip), vehicle: water) 119 % of control; (dose: 16.0 mg/kg/injection, schedule: Q01DX001 (ip), vehicle: water) 153 % of control. Further, the T/C runs as follows: (dose: 18.0 mg/kg/injection, schedule: Q01DX001 (ip), vehicle: water) 169 % of control; (dose: 30.0 mg/kg/injection, schedule: Q01DX001 (ip), vehicle: water) 173 % of control; (dose: 32.0 mg/kg/injection, schedule: Q01DX001 (ip), vehicle: water) 185 % of control.
